Reference: patent US20240109930A1, “TRIAZOLYL-METHYL SUBSTITUTED ALPHA-D-GALACTOPYRANOSIDE DERIVATIVES” (Idorsia Pharmaceuticals Ltd, priority 2021, published 2024)

Key:
human Gal-1 (hGal-1) = human Gal-1 (hGal-1) (Homo sapiens, UniProt P09382, C131S/C17S/C43S/C61S/C89S); experiment: Competitive binding assay: biotinylated hGal-1 binding to microplate-adsorbed asialofetuin (ASF); details: IC50 values from several measurements given as geomean
Experimental: (§1) The inhibitory activity of compounds is determined in competitive binding assays. This spectrophotometric assay measures the binding of biotinylated human Gal-3 (hGal-3) or human Gal-1 (hGal-1), respectively, to a microplate-adsorbed glycoprotein, asialofetuin (ASF) (Proc Natl Acad Sci USA. 2013 Mar. 26; 110(13):5052-7.). Alternatively, and preferably, a human Gal-1 version in which all six cysteines are substituted by serines may be used.
(§2) Briefly, compounds are serially diluted in DMSO (working dilutions). ASF-coated 384well plates are supplemented with 22.8 μL/well of biotinylated hGal-3 or hGal-1 in assay buffer (i.e. 300-1000 ng/mL biotinylated hGal-3 or hGal-1) to which 1.2 μL of compound working dilutions are added and mixed.
(§3) Plates are incubated for 3 hours at 4° C., then washed with cold assay buffer (3×50 uL), incubated for 1 hour with 25 μL/well of a streptavidin-peroxidase solution (diluted in assay buffer to 80 ng/mL) at 4° C., followed by further washing steps with assay buffer (3×50 uL). Finally, 25 μL/well of ABTS substrate is added.
(§4) The calculated IC50 values may fluctuate depending on the daily assay performance. Fluctuations of this kind are known to those skilled in the art. IC50 values from several measurements are given as geomean values.

human Gal-3 (hGal-3) = human Gal-3 (hGal-3) (Homo sapiens (Human), UniProt P17931); experiment: Competitive binding assay: biotinylated hGal-3 binding to microplate-adsorbed asialofetuin (ASF); details: IC50 values from several measurements given as geomean
Sequence of human Gal-3 (hGal-3) (P17931 whole entry): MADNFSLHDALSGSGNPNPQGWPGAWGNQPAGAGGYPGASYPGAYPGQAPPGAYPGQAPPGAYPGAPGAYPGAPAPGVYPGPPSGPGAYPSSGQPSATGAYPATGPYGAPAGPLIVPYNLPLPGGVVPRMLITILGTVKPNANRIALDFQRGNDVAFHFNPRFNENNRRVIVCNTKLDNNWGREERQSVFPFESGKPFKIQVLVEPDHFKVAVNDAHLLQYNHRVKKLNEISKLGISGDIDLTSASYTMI
Experimental: as §1, §2, §3, §4

SMILES	IC50 (human Gal-1 (hGal-1)) [µM]	IC50 (human Gal-3 (hGal-3)) [µM]
CO[C@@H]1[C@@H](n2cc(-c3ccc(Cl)c(F)c3F)nn2)[C@@H](O)[C@@H](CO)O[C@@H]1Cc1cn(C2COCC2(F)F)nn1 (mixture of isomers) [Example 2.1.90.A]	1.13	0.03
CO[C@@H]1[C@@H](n2cc(-c3ccc(Cl)c(F)c3F)nn2)[C@@H](O)[C@@H](CO)O[C@@H]1Cc1cn(C2COCC2(F)F)nn1 (mixture of isomers) [Example 2.1.90.B]	0.91	0.02
CO[C@@H]1[C@@H](n2cc(-c3ccc(Cl)c(F)c3F)nn2)[C@@H](O)[C@@H](CO)O[C@@H]1Cc1cn([C@@H]2CCC[C@H]2F)nn1 (relative stereo) [Example 2.1.79.CD, (2R,3R,4S,5R,6R)-4-(4-(4-chloro-2,3-difluorophenyl)-1H-1,2,3-triazol-1-yl)-6-((1-((1R*,2R*)-2-fluorocyclopentyl)-1H-1,2,3-triazol-4-yl)methyl)-2-(hydroxymethyl)-5-methoxytetrahydro-2H-pyran-3-ol]	3.48	0.06
CO[C@@H]1[C@@H](n2cc(-c3ccc(Cl)c(F)c3F)nn2)[C@@H](O)[C@@H](CO)O[C@@H]1Cc1cn([C@@H]2CC[C@@H]2F)nn1 (relative stereo) [Example 2.1.88.A, (2R,3R,4S,5R,6R)-4-(4-(4-chloro-2,3-difluorophenyl)-1H-1,2,3-triazol-1-yl)-6-((1-((1R*,2S*)-2-fluorocyclobutyl)-1H-1,2,3-triazol-4-yl)methyl)-2-(hydroxymethyl)-5-methoxytetrahydro-2H-pyran-3-ol]	1.77	–
CO[C@@H]1[C@@H](n2cc(-c3ccc(Cl)c(F)c3F)nn2)[C@@H](O)[C@@H](CO)O[C@@H]1Cc1cn([C@@H]2CC[C@H]2F)nn1 (relative stereo) [Example 2.1.88.C, (2R,3R,4S,5R,6R)-4-(4-(4-chloro-2,3-difluorophenyl)-1H-1,2,3-triazol-1-yl)-6-((1-((1R*,2R*)-2-fluorocyclobutyl)-1H-1,2,3-triazol-4-yl)methyl)-2-(hydroxymethyl)-5-methoxytetrahydro-2H-pyran-3-ol]	1.68	–
CO[C@@H]1[C@@H](n2cc(-c3ccc(Br)c(F)c3F)nn2)[C@@H](O)[C@@H](CO)O[C@@H]1Cc1cn([C@H]2CCC[C@@H]2F)nn1 (relative stereo) [Example 4.1.79.CD, (2R,3R,4S,5R,6R)-4-(4-(4-bromo-2,3-difluorophenyl)-1H-1,2,3-triazol-1-yl)-6-((1-((1S*,2S*)-2-fluorocyclopentyl)-1H-1,2,3-triazol-4-yl)methyl)-2-(hydroxymethyl)-5-methoxytetrahydro-2H-pyran-3-ol]	4.96	0.07
CO[C@@H]1[C@@H](n2cc(-c3ccc(Br)c(F)c3F)nn2)[C@@H](O)[C@@H](CO)O[C@@H]1Cc1cn([C@@H]2CC[C@@H]2F)nn1 (relative stereo) [Example 4.1.88.AB, (2R,3R,4S,5R,6R)-4-(4-(4-bromo-2,3-difluorophenyl)-1H-1,2,3-triazol-1-yl)-6-((1-((1R*,2S*)-2-fluorocyclobutyl)-1H-1,2,3-triazol-4-yl)methyl)-2-(hydroxymethyl)-5-methoxytetrahydro-2H-pyran-3-ol]	2.45	0.03
CO[C@@H]1[C@@H](n2cc(-c3ccc(Cl)c(F)c3F)nn2)[C@@H](O)[C@@H](CO)O[C@@H]1Cc1cn(C2CC(F)C2)nn1 (single isomer, unassigned) [Example 2.1.60.A]	0.69	0.02
CO[C@@H]1[C@@H](n2cc(-c3ccc(Cl)c(F)c3F)nn2)[C@@H](O)[C@@H](CO)O[C@@H]1Cc1cn(C2CC(F)C2)nn1 (single isomer, unassigned) [Example 2.1.60.B]	1.19	0.04
CO[C@@H]1[C@@H](n2cc(-c3ccc(Cl)c(F)c3F)nn2)[C@@H](O)[C@@H](CO)O[C@@H]1Cc1cn(C2CCC2(F)F)nn1 (single isomer, unassigned) [Example 2.1.63.A]	2.17	0.06
CO[C@@H]1[C@@H](n2cc(-c3ccc(Cl)c(F)c3F)nn2)[C@@H](O)[C@@H](CO)O[C@@H]1Cc1cn(C2CCC2(F)F)nn1 (single isomer, unassigned) [Example 2.1.63.B]	2	0.04
CO[C@@H]1[C@@H](n2cc(-c3ccc(Cl)c(F)c3F)nn2)[C@@H](O)[C@@H](CO)O[C@@H]1Cc1cn([C@]2(C)CCO[C@@H]2C)nn1 (single isomer, unassigned) [Example 2.1.68.A, (2R,3R,4S,5R,6R)-4-(4-(4-chloro-2,3-difluorophenyl)-1H-1,2,3-triazol-1-yl)-6-((1-((2R*,3R*)-2,3-dimethyltetrahydrofuran-3-yl)-1H-1,2,3-triazol-4-yl)methyl)-2-(hydroxymethyl)-5-methoxytetrahydro-2H-pyran-3-ol]	1.1	0.03
CO[C@@H]1[C@@H](n2cc(-c3ccc(Cl)c(F)c3F)nn2)[C@@H](O)[C@@H](CO)O[C@@H]1Cc1cn([C@]2(C)CCO[C@@H]2C)nn1 (single isomer, unassigned) [Example 2.1.68.B, (2R,3R,4S,5R,6R)-4-(4-(4-chloro-2,3-difluorophenyl)-1H-1,2,3-triazol-1-yl)-6-((1-((2R*,3R*)-2,3-dimethyltetrahydrofuran-3-yl)-1H-1,2,3-triazol-4-yl)methyl)-2-(hydroxymethyl)-5-methoxytetrahydro-2H-pyran-3-ol]	0.67	0.02
CO[C@@H]1[C@@H](n2cc(-c3ccc(Cl)c(F)c3F)nn2)[C@@H](O)[C@@H](CO)O[C@@H]1Cc1cn(C2COCCC2(F)F)nn1 (single isomer, unassigned) [Example 2.1.73.B]	1.2	0.06
CO[C@@H]1[C@@H](n2cc(-c3ccc(Cl)c(F)c3F)nn2)[C@@H](O)[C@@H](CO)O[C@@H]1Cc1cn([C@@H]2COC[C@@H]2F)nn1 (single isomer, unassigned) [Example 2.1.74.A, (2R,3R,4S,5R,6R)-4-(4-(4-chloro-2,3-difluorophenyl)-1H-1,2,3-triazol-1-yl)-6-((1-((3R*,4R*)-4-fluorotetrahydrofuran-3-yl)-1H-1,2,3-triazol-4-yl)methyl)-2-(hydroxymethyl)-5-methoxytetrahydro-2H-pyran-3-ol]	0.45	0.01
CO[C@@H]1[C@@H](n2cc(-c3ccc(Cl)c(F)c3F)nn2)[C@@H](O)[C@@H](CO)O[C@@H]1Cc1cn([C@@H]2COC[C@@H]2F)nn1 (single isomer, unassigned) [Example 2.1.74.B, (2R,3R,4S,5R,6R)-4-(4-(4-chloro-2,3-difluorophenyl)-1H-1,2,3-triazol-1-yl)-6-((1-((3R*,4R*)-4-fluorotetrahydrofuran-3-yl)-1H-1,2,3-triazol-4-yl)methyl)-2-(hydroxymethyl)-5-methoxytetrahydro-2H-pyran-3-ol]	1.62	0.04
CO[C@@H]1[C@@H](n2cc(-c3ccc(F)c(F)c3F)nn2)[C@@H](O)[C@@H](CO)O[C@@H]1Cc1cn(C23COC(C2)C3)nn1 [Ex 3.1.44.]	0.8	–
CO[C@@H]1[C@@H](n2cc(-c3ccc(F)c(F)c3F)nn2)[C@@H](O)[C@@H](CO)O[C@@H]1Cn1cc(C2(O)CCC2)nn1 [Ex 3.2.31.]	0.73	–
CO[C@@H]1[C@@H](n2cc(-c3ccc(Br)c(F)c3F)nn2)[C@@H](O)[C@@H](CO)O[C@@H]1Cn1cc(C2(O)CCC2)nn1 [Ex 4.2.31.]	2.55	–
CO[C@@H]1[C@@H](n2cc(-c3ccc(Cl)c(F)c3F)nn2)[C@@H](O)[C@@H](CO)O[C@@H]1Cc1cn(C2COCCC2(F)F)nn1 (stereo partly drawn) [Example 2.1.73.A, (2R,3R,4S,5R,6R)-4-(4-(4-chloro-2,3-difluorophenyl)-1H-1,2,3-triazol-1-yl)-6-((1-(4,4-difluorotetrahydro-2H-pyran-3-yl)-1H-1,2,3-triazol-4-yl)methyl)-2-(hydroxymethyl)-5-methoxytetrahydro-2H-pyran-3-ol]	1.4	–
CO[C@@H]1[C@@H](n2cc(-c3ccc(Cl)c(F)c3F)nn2)[C@@H](O)[C@@H](CO)O[C@@H]1Cc1cn(C2(C(F)(F)F)CCOC2)nn1 (stereo partly drawn) [Example 2.1.77.A, (2R,3R,4S,5R,6R)-4-(4-(4-chloro-2,3-difluorophenyl)-1H-1,2,3-triazol-1-yl)-2-(hydroxymethyl)-5-methoxy-6-((1-(3-(trifluoromethyl)tetrahydrofuran-3-yl)-1H-1,2,3-triazol-4-yl)methyl)tetrahydro-2H-pyran-3-ol]	0.76	–
CO[C@@H]1[C@@H](n2cc(-c3ccc(F)c(F)c3F)nn2)[C@@H](O)[C@@H](CO)O[C@@H]1Cc1cn(C23COC(C2)C3)nn1 [Example 3.1.44, (2R,3R,4S,5R,6R)-6-((1-(2-oxabicyclo[2.1.1]hexan-4-yl)-1H-1,2,3-triazol-4-yl)methyl)-2-(hydroxymethyl)-5-methoxy-4-(4-(2,3,4-trifluorophenyl)-1H-1,2,3-triazol-1-yl)tetrahydro-2H-pyran-3-ol]	–	0.04
